{"source": "paper PMC7358525", "about": "“Characterization of PF-6142, a Novel, Non-Catecholamine Dopamine Receptor D1 Agonist, in Murine and Nonhuman Primate Models of Dopaminergic Activation” (Frontiers in Pharmacology, 2020)", "key": {"[1]": {"test_system": "ketamine-induced working memory deficits", "test": "Ketamine-disrupted radial arm maze (RAM)", "assay_type": "in vivo, rat", "details": "ketamine 10 mg/kg s.c.", "excerpt": "Two cohorts of adult male Long-Evans rats (N=30 each) were trained in a spatial working memory task on an eight-arm RAM, (Pathfinder Maze System, Lafayette Instrument Co., Lafayette, IN), using a procedure adapted from [Ward et al. (1990)] and described in detail in [Strick et al. (2011)]. Briefly, rats were food-restricted to provide motivation to perform the RAM task. The task requires that the animals enter each arm to retrieve a reinforcement food pellets, using spatial cues in the room to remember which arms of the maze they have previously entered. Rats were individually placed on the maze and allowed to navigate until all eight arms were entered and the pellets were consumed or until 30 choices were made, or until 5 min had elapsed. Entry into an arm previously entered was counted as an error. […] Training continued until all animals had reached the training criterion, defined as two or fewer errors on two consecutive days. […] Performance on the maze was evaluated 30 min later by an observer that was blinded to treatments.\nThe R 3.0.1 statistical software was used to compare the error rate data. The effects of treatment and the interaction on the error rate were assessed using a one-way mixed model ANOVA using generalized least squares method from lme4 library. […]"}, "[2]": {"test_system": "ketamine-induced working memory deficits", "test": "Spatial delayed response (SDR) task in the nonhuman primate", "assay_type": "in vivo, rhesus monkeys", "details": "ketamine 0.7-1.7 mg/kg i.m.; baseline 70.63 ± 1.75%", "excerpt": "This study was designed to test the hypothesis that PF-6142 would provide significant protection versus the ketamine-induced working memory deficits in nonhuman primates.\nRhesus monkeys were trained to stability on a variable SDR task in a sound-attenuated Wisconsin General Testing Apparatus ([Roberts et al., 2010]). Briefly, subjects observe while the investigator baiting one of two to seven wells with a highly preferred food reward and then covers all the wells with identical square plaques. An opaque screen is then lowered for one of five variable delays, which are pseudorandomized across trials within a session. Thus, delays are defined as 0–4 N, where “N” is a value that is animal dependent and ranges from 1 to 10 s depending upon the difficulty level of the task at which an animal reaches the criterion of stable performance. At the end of the delay period, the opaque screen is raised, and the animal must select the well that had been baited to obtain a reward. Each test session consists of 20 trials wherein both the baited well and delay length are pseudorandomized across trials. Before study initiation, all subjects were required to reach stability over a period of 10 consecutive test sessions, where stability was defined as an average of 65–75% correct. Stability was attained by varying the number of wells and the delay value for each animal. Subjects were originally trained on a two-well board with an N value of 1. […] Once stability was attained for a given number of wells and N value, that combination was kept constant throughout the course of the study ([Roberts et al., 2010]). The range of stable performance for the 10 subjects was two to five wells and an N value of 1–7 s (median, four-well testing board, N = 5 s). Data were transformed using logarithmic function [log(x+5)] to improve normality and analyzed using ANOVA.\nSubjects received pretreatment with vehicle (sterile saline solution) or PF-6142 (0.0015, 0.015, 0.15 mg/kg, s.c.) 4 h before cognitive testing. They then received an intramuscular injection of either vehicle (sterile saline) or ketamine (0.7–1.7 mg/kg; Fort Dodge Co.) 0.25 h before cognitive testing. […] Thus, for the present study, one monkey received 0.7 mg/kg, seven monkeys received 1.0 mg/kg, and two monkeys received 1.7 mg/kg of ketamine. The vehicle/PF-6142 and vehicle/ketamine treatments were assigned using a randomized Latin square design with a total of eight conditions. Except for the vehicle/vehicle condition, there was a minimum 2-week washout period between all acute challenges during which time animals were required to “restabilize” to baseline performance levels, which was defined as at least three consecutive testing sessions wherein cognitive performance ranged between 65% and 75% correct."}}, "note": "Structures can show the parent of a compound that is named as a salt."}
{"smiles": "CNC1(c2ccccc2Cl)CCCCC1=O", "note": "(centres unmarked) [ketamine, ketamine hydrochloride, reference compound]", "values": [{"measurement": "error rate (errors/choices) in RAM", "setting": "[1]", "result": "robust increase in error rate"}, {"measurement": "percent correct on the SDR task", "setting": "[2]", "result": "28.75 ± 2.45", "unit": "%"}]}
